Data published in US4552882A, “7-(1-Pyrrolyl) derivatives of 1-ethyl-1,4-dihydro-4-oxoquinoline-3-carboxylic acids and 1-ethyl-1,4-dihydro-4-oxo-1,8-naphthyridine-3-carboxylic acids and their use as antimicrobial agents” (Provesan, SA, priority 1983, dated 1985).
≈ marks a conversion by molar mass, not a printed value.

Assays:
[1] = test system: Escherichia coli ATCC 10536; assay: MIC in vitro; format: cell-based; settings: ATCC10536, Dextrose agar, 37° C., 20 hours
Protocol: (§1) (G. L. Daquet and Y. A. Chabbect, Techniques en bacteriologie (Bacteriological techniques), vol. 3, Flammarion Medecine Sciences, Paris, 1972 and W. B. Hugo and A. D. Rusell, Pharmaceutical Microbiology, Blackwell Scientific Publications, London, (1977)). Antibiotic medium no. 1 (seed agar) (Oxoid CM 327) Tryptone-soya broth (Oxoid CM 129) Ringer's physiological solution 1/4 (oxoid BR 52) Dextrose agar (BBL-11165) 0.1 N NaOH "Escherichia coli" ATCC 10536 Each of the microorganisms is seeded by streaking in tubes of Antibiotic medium No. 1 (seed agar), which are then incubated at 37° C. for 20 hours. Using a culture loop, the cultures are then seeded in tryptone-soyabroth and incubated at 37° C. for 20 hours. The culture obtained is diluted to 1/4 with Ringer's physiological solution, so as to obtain a standardized suspension of 10^7 -10^9 cfu/ml for each organism. Starting from a solution of 1,000 μg/ml in 0.1 N NaOH, each product is diluted in Dextrose agar (previously melted and maintained at 50° C.), with successive dilutions so as to obtain the following concentrations: 64--32--16--8--4--2--1--0.5--0.25--0.125 μg of derivative/ml medium. For each product, the solution of each concentration is subsequently distributed into Petri dishes 10 cm in diameter, with 10 ml of medium per dish and the same number of dishes as microorganisms to be tested. As soon as the medium has cooled, the dishes are seeded with the inoculations using 0.4 ml of inoculation per dish. They are spread with a Driglasky loop and the supernatant is removed. The seeded dishes are incubated at 37° C. for 20 hours.

[2] = test system: Shigella flexnerii; assay: MIC in vitro; format: cell-based; settings: Dextrose agar, 37° C., 20 hours
Protocol: (§2) (G. L. Daquet and Y. A. Chabbect, Techniques en bacteriologie (Bacteriological techniques), vol. 3, Flammarion Medecine Sciences, Paris, 1972 and W. B. Hugo and A. D. Rusell, Pharmaceutical Microbiology, Blackwell Scientific Publications, London, (1977)).
(§3) Antibiotic medium no. 1 (seed agar) (Oxoid CM 327)
(§4) Tryptone-soya broth (Oxoid CM 129)
(§5) Ringer's physiological solution 1/4 (oxoid BR 52) Dextrose agar (BBL-11165) 0.1 N NaOH
(§6) Each of the microorganisms is seeded by streaking in tubes of Antibiotic medium No. 1 (seed agar), which are then incubated at 37° C. for 20 hours. Using a culture loop, the cultures are then seeded in tryptone-soyabroth and incubated at 37° C. for 20 hours. The culture obtained is diluted to 1/4 with Ringer's physiological solution, so as to obtain a standardized suspension of 10^7 -10^9 cfu/ml for each organism.
(§7) Starting from a solution of 1,000 μg/ml in 0.1 N NaOH, each product is diluted in Dextrose agar (previously melted and maintained at 50° C.), with successive dilutions so as to obtain the following concentrations: 64--32--16--8--4--2--1--0.5--0.25--0.125 μg of derivative/ml medium.
(§8) For each product, the solution of each concentration is subsequently distributed into Petri dishes 10 cm in diameter, with 10 ml of medium per dish and the same number of dishes as microorganisms to be tested.
(§9) As soon as the medium has cooled, the dishes are seeded with the inoculations using 0.4 ml of inoculation per dish. They are spread with a Driglasky loop and the supernatant is removed. The seeded dishes are incubated at 37° C. for 20 hours.

[3] = test system: Staphylococcus aureus ATCC 25178; assay: MIC in vitro; format: cell-based; settings: ATCC25178, Dextrose agar, 37° C., 20 hours
Protocol: as §1, with “"Staphylococcus aureus"” for “"Escherichia coli"”, “25178” for “10536”

[4] = in vivo; settings: mouse, ip
Protocol: To determine this toxicity, C.F.L.P. strain albino mice of both sexes, weighing between 19 and 25 grams, have been used as experimental animals. After an 18 hour fast period with water "ad libitum" the derivatives which are the subjects of the present invention are administered intraperitoneally in 5% suspension in gum arabic. The volume of suspension administered has in all cases been 0.4 ml/20 grams (20 ml/kg), changing the concentration of the suspension according to the dose administered.
One hour after the administration of the derivatives, the animals are supplied with Panlab standard rat-mouse feed. The period of observation of mortality has been 7 days.

[5] = test system: gram-negative microorganisms; assay: in vitro antimicrobial activity compared to pipemidic acid; format: cell-based
Protocol: as §2, §3, §4, §5, §6, §7, §8, §9

Row | Structure (SMILES) | MIC [1] [µg/mL] | MIC [2] [µg/mL] | MIC [3] [µg/mL] | LD50 at 168 h [4] [mg/kg] | activity compared to pipemidic acid [5]
1 | CCn1cc(C(=O)O)c(=O)c2ccc(-n3cccc3)cc21 [Example 1, 7-(1-pyrrolyl)-1-ethyl-1,4-dihydro-4-oxo-3-quinolinecarboxylic acid] | 4 (≈ 14.2 µM) | 8 (≈ 28.3 µM) | 1 (≈ 3.54 µM) | > 800 | –
2 | CCn1cc(C(=O)O)c(=O)c2cc(F)c(-n3cccc3)cc21 [Example 2, 6-fluoro-7-(1-pyrrolyl)-1-ethyl-1,4-dihydro-4-oxo-3-quinolinecarboxylic acid] | 1 (≈ 3.33 µM) | 2 (≈ 6.66 µM) | 0.25 (≈ 0.833 µM) | > 1600 | –
3 | CCn1cc(C(=O)O)c(=O)c2ccc(-n3cccc3)nc21 [Example 3, 1-ethyl-1,4-dihydro-4-oxo-7-(1-pyrrolyl)-1,8-naphthyridine-3-carboxylic acid] | 8 (≈ 28.2 µM) | 16 (≈ 56.5 µM) | 4 (≈ 14.1 µM) | 900 | activity of the same order as that of pipemidic acid
4 | CCn1cc(C(=O)O)c(=O)c2cc(F)c(-n3cccc3)nc21 [Example 4, 1-ethyl-1,4-dihydro-4-oxo-6-fluoro-7-(1-pyrrolyl)-1,8-naphthyridine-3-carboxylic acid] | 0.12 (≈ 0.398 µM) | 2 (≈ 6.64 µM) | 0.5 (≈ 1.66 µM) | > 1000 | –
5 | CCn1cc(C(=O)O)c(=O)c2cnc(N3CCNCC3)nc21 [Pipemidic acid, reference compound] | 2 (≈ 6.59 µM) | 4 (≈ 13.2 µM) | 64 (≈ 211 µM) | – | –
